Data taken from article PMC11045757, “Group 3 medulloblastoma transcriptional networks collapse under domain specific EP300/CBP inhibition” (Nature Communications, 2024).

System: 460 barcoded cancer cell lines
Assay: PRISM pooled barcoded cancer cell line growth screen, 10-point dose-response, 5 days, AUC
Type: cell-based
Design: scale not given here
From the text: Several small molecule inhibitors of distinct protein domains of EP300/CBP are available, though the majority target the histone acetyltransferase domain (HAT) or bromodomain (BRD)[5],[10],[21],[22]. […] We used these tools to investigate the relative contribution of the EP300/CBP BRD or HAT domain to tumor cell growth (Fig. 1a). To do so, we performed 10-point, dose-response growth assays using mixed pools of 460 barcoded cancer cell lines, over five days of treatment in vitro[33],[34]. Growth was measured using an area-under-the-curve (AUC) approach (Supplementary Table 1, Supplementary Fig. 1a). […] Given potential differences in compound penetration and solubility, and to compare the relative cell line and tumor-specific effects of these two compounds in assays performed non-simultaneously, we performed a median normalization of each dataset (Supplementary Table 2).

CNC(=O)Nc1ccc2c(c1)CCC21OC(=O)N(CC(=O)N(Cc2ccc(F)cc2)C(C)C(F)(F)F)C1=O (centres unmarked) [Compound A485]
AUC (22RV1, Prostate Cancer): 0.5834 | AUC (42MGBA, Glioma): 0.8468 | AUC (143B, Osteosarcoma): 1 | AUC (639V, Bladder Cancer): 0.8274 | AUC (647V, Bladder Cancer): 0.6672 | AUC (697, B-cell Leukemia): 0.5617 | AUC (769P, Kidney Cancer): 0.6332 | AUC (5637, Bladder Cancer): 0.8843 | AUC (8305C, Thyroid Cancer): 0.7544 | AUC (A101D, Melanoma): 0.9258 | AUC (A204, Rhabdoid): 0.6513 | AUC (A253, Head and Neck Cancer): 0.8228 | AUC (A375, Melanoma): 0.749 | AUC (A427, Lung Cancer): 0.6968 | AUC (A673, Ewing Sarcoma): 1 | AUC (A1207, Glioblastoma): 0.7712 | AUC (ACHN, Kidney Cancer): 0.5417 | AUC (AGS, Gastric Cancer): 0.7849 | AUC (AM38, Glioblastoma): 1 | AUC (AN3CA, Endometrial/Uterine Cancer): 0.8692 | AUC (AU565, Breast Cancer): 0.7944 | AUC (BDCM, AML): 0.9026 | AUC (BEN, Lung Cancer): 0.8869 | AUC (BFTC905, Bladder Cancer): 0.6715 | AUC (BHT101, Thyroid Cancer): 0.6133 | AUC (BICR16, Head and Neck Cancer): 0.6804 | AUC (BICR18, Head and Neck Cancer): 1 | AUC (BICR22, Head and Neck Cancer): 0.7556 | AUC (BICR31, Head and Neck Cancer): 0.7077 | AUC (BICR56, Head and Neck Cancer): 0.6769 | AUC (BT16, Rhabdoid): 1 | AUC (BT474, Breast Cancer): 0.9498 | AUC (C32, Melanoma): 0.9339 | AUC (C8166, Lymphoma): 0.6916 | AUC (CADOES1, Ewing Sarcoma): 0.6865 | AUC (CAKI1, Kidney Cancer): 0.6849 | AUC (CAL27, Head and Neck Cancer): 0.7545 | AUC (CAL54, Kidney Cancer): 0.4813 | AUC (CAL62, Thyroid Cancer): 0.8629 | AUC (CAL78, Chondrosarcoma): 0.8774 | AUC (CAL120, Breast Cancer): 0.8951 | AUC (CAOV3, Ovarian Cancer): 0.8124 | AUC (CBAGPN, Ewing Sarcoma): 0.8343 | AUC (CCK81, Colon/Colorectal Cancer): 0.7195 | AUC (CHAGOK1, Lung Cancer): 0.9372 | AUC (CHL1, Melanoma): 0.6205 | AUC (CHLA06ATRT, Rhabdoid): 1 | AUC (CHLA10, Ewing Sarcoma): 0.7781 | AUC (CHLA15, Neuroblastoma): 0.7188 | AUC (CHLA57, Ewing Sarcoma): 0.9584 | AUC (CHP212, Neuroblastoma): 0.8072 | AUC (CI1, B-cell Lymphoma): 0.7779 | AUC (CJM, Melanoma): 0.6266 | AUC (CL11, Colon/Colorectal Cancer): 0.6639 | AUC (CL34, Colon/Colorectal Cancer): 0.6654 | AUC (CMLT1, CML): 0.6607 | AUC (COGAR359, Rhabdoid): 1 | AUC (COGE352, Ewing Sarcoma): 1 | AUC (COLO320, Colon/Colorectal Cancer): 1 | AUC (COLO678, Colon/Colorectal Cancer): 0.7938 | AUC (COLO783, Melanoma): 0.9045 | AUC (COLO792, Melanoma): 0.7929 | AUC (CORL23, Lung Cancer): 0.831 | AUC (CORL105, Lung Cancer): 0.7616 | AUC (COV318, Ovarian Cancer): 0.7366 | AUC (COV434, Ovarian Cancer): 0.6392 | AUC (COV644, Ovarian Cancer): 0.7528 | AUC (CW2, Colon/Colorectal Cancer): 0.9324 | AUC (CW9019, Rhabdomyosarcoma): 0.6452 | AUC (DAOY, Medulloblastoma): 0.7773 | AUC (DEL, Lymphoma): 0.7007 | AUC (DETROIT562, Head and Neck Cancer): 0.6189 | AUC (DKMG, Glioblastoma): 0.8817 | AUC (DL, Rhabdoid): 0.6996 | AUC (DMS53, Lung Cancer): 0.6382 | AUC (DMS273, Lung Cancer): 0.7762 | AUC (DND41, T-acute leukemia): 0.7502 | AUC (DU145, Prostate Cancer): 0.8463 | AUC (DU4475, Breast Cancer): 0.4233 | AUC (DV90, Lung Cancer): 0.6128 | AUC (EB1, Lymphoma): 1 | AUC (EBC1, Lung Cancer): 0.8735 | AUC (ECC10, Gastric Cancer): 0.8444 | AUC (ECGI10, Esophageal Cancer): 0.8435 | AUC (EFE184, Endometrial/Uterine Cancer): 1 | AUC (EFM19, Breast Cancer): 0.5992 | AUC (EFO21, Ovarian Cancer): 0.9024 | AUC (EM2, CML): 0.902 | AUC (EN, Endometrial/Uterine Cancer): 0.9736 | AUC (ES2, Ovarian Cancer): 0.7477 | AUC (ESS1, Endometrial/Uterine Cancer): 0.9044 | AUC (EW8, Ewing Sarcoma): 0.7371 | AUC (EWS502, Ewing Sarcoma): 0.6563 | AUC (FADU, Head and Neck Cancer): 0.9573 | AUC (FTC133, Thyroid Cancer): 0.8254 | AUC (FTC238, Thyroid Cancer): 0.7484 | AUC (G292CLONEA141B1, Osteosarcoma): 1 | AUC (G361, Melanoma): 0.6803 | AUC (G401, Rhabdoid): 1 | AUC (G402, Rhabdoid): 0.9975 | AUC (GB1, Glioblastoma): 0.7582 | AUC (GCT, Pleomorphic Sarcoma): 0.8933 | AUC (GI1, Glioblastoma): 0.757 | AUC (GOS3, Glioblastoma): 0.9534 | AUC (GP2D, Colon/Colorectal Cancer): 0.7575 | AUC (GRANTA519, Lymphoma): 0.8493 | AUC (GSS, Gastric Cancer): 0.6579 | AUC (HARA, Lung Cancer): 0.7108 | AUC (HCC33, Lung Cancer): 0.908 | AUC (HCC38, Breast Cancer): 0.7435 | AUC (HCC44, Lung Cancer): 0.6558 | AUC (HCC56, Colon/Colorectal Cancer): 0.6212 | AUC (HCC78, Lung Cancer): 0.7931 | AUC (HCC95, Lung Cancer): 0.8823 | AUC (HCC515, Lung Cancer): 0.6901 | AUC (HCC1419, Breast Cancer): 0.6161 | AUC (HCC1428, Breast Cancer): 0.6381 | AUC (HCC1438, Lung Cancer): 0.9014 | AUC (HCC1806, Breast Cancer): 0.8548 | AUC (HCC1937, Breast Cancer): 0.6971 | AUC (HCC2108, Lung Cancer): 1 | AUC (HCC4006, Lung Cancer): 0.7024 | AUC (HCT116, Colon/Colorectal Cancer): 0.9205 | AUC (HDMYZ, Lymphoma): 1 | AUC (HDQP1, Breast Cancer): 0.7294 | AUC (HEC1B, Endometrial/Uterine Cancer): 0.8662 | AUC (HEC6, Endometrial/Uterine Cancer): 0.9741 | AUC (HEC50B, Endometrial/Uterine Cancer): 1 | AUC (HEL9217, AML): 0.6119 | AUC (HEL, AML): 0.5914 | AUC (HEP3B217, Liver Cancer): 0.7234 | AUC (HEPG2, Liver Cancer): 0.8554 | AUC (HEYA8, Ovarian Cancer): 0.9784 | AUC (HGC27, Gastric Cancer): 0.9226 | AUC (HH, Lymphoma): 0.7764 | AUC (HOS, Osteosarcoma): 0.9517 | AUC (HPBALL, T-acute leukemia): 0.8767 | AUC (HS294T, Melanoma): 0.8326 | AUC (HS766T, Pancreatic Cancer): 0.7648 | AUC (HSC2, Head and Neck Cancer): 0.6896 | AUC (HSC3, Head and Neck Cancer): 0.8176 | AUC (HT29, Colon/Colorectal Cancer): 0.7629 | AUC (HT115, Colon/Colorectal Cancer): 1 | AUC (HT144, Melanoma): 0.8574 | AUC (HT1197, Bladder Cancer): 0.9829 | AUC (HT, B-cell Lymphoma): 0.6247 | AUC (HUCCT1, Bile Duct Cancer): 0.8158 | AUC (HUG1N, Gastric Cancer): 0.7448 | AUC (HUH1, Liver Cancer): 0.7158 | AUC (HUH7, Liver Cancer): 1 | AUC (HUH28, Bile Duct Cancer): 0.821 | AUC (HUPT3, Pancreatic Cancer): 0.6895 | AUC (HUPT4, Pancreatic Cancer): 0.6862 | AUC (HUT78, Lymphoma): 0.9441 | AUC (IALM, Lung Cancer): 0.6559 | AUC (IGR37, Melanoma): 0.6843 | AUC (IGROV1, Ovarian Cancer): 0.8359 | AUC (IM95, Gastric Cancer): 0.7117 | AUC (IPC298, Melanoma): 0.8033 | AUC (ISHIKAWAHERAKLIO02ER, Endometrial/Uterine Cancer): 0.9178 | AUC (ISTMES1, Lung Cancer): 0.7574 | AUC (J82, Bladder Cancer): 0.8707 | AUC (JEKO1, Lymphoma): 0.7073 | AUC (JHH1, Liver Cancer): 0.7161 | AUC (JHH4, Liver Cancer): 0.849 | AUC (JHH5, Liver Cancer): 0.5701 | AUC (JHH7, Liver Cancer): 0.6779 | AUC (JHOC5, Ovarian Cancer): 0.8969 | AUC (JHUEM7, Endometrial/Uterine Cancer): 1 | AUC (JVM3, B-cell Leukemia): 0.6743 | AUC (K029AX, Melanoma): 0.7933 | AUC (KALS1, Glioblastoma): 0.6866 | AUC (KARPAS620, Myeloma): 0.9002 | AUC (KATOIII, Gastric Cancer): 0.6951 | AUC (KCL22, CML): 0.6275 | AUC (KD, Rhabdoid): 0.6425 | AUC (KE37, T-acute leukemia): 0.6716 | AUC (KE39, Gastric Cancer): 0.7203 | AUC (KELLY, Neuroblastoma): 0.5242 | AUC (KMBC2, Bladder Cancer): 0.7261 | AUC (KMS11, Myeloma): 0.7944 | AUC (KMS12BM, Myeloma): 0.9973 | AUC (KMS18, Myeloma): 0.7657 | AUC (KMS21BM, Myeloma): 0.9338 | AUC (KMS28BM, Myeloma): 0.817 | AUC (KMS34, Myeloma): 0.8682 | AUC (KNS42, Glioblastoma): 0.8304 | AUC (KNS60, Glioblastoma): 0.7072 | AUC (KNS62, Lung Cancer): 0.8264 | AUC (KP3, Pancreatic Cancer): 0.9118 | AUC (KPNYN, Neuroblastoma): 0.9338 | AUC (KS1, Glioma): 0.6653 | AUC (KU1919, Bladder Cancer): 0.6431 | AUC (KYM1, Rhabdoid): 0.5622 | AUC (KYSE30, Esophageal Cancer): 0.6256 | AUC (KYSE150, Esophageal Cancer): 0.8681 | AUC (KYSE410, Esophageal Cancer): 0.9564 | AUC (KYSE510, Esophageal Cancer): 0.7247 | AUC (KYSE520, Esophageal Cancer): 0.7055 | AUC (LAMA84, CML): 0.6928 | AUC (LC1SQSF, Lung Cancer): 0.7027 | AUC (LCLC103H, Lung Cancer): 0.9264 | AUC (LI7, Liver Cancer): 0.7203 | AUC (LK2, Lung Cancer): 0.847 | AUC (LMSU, Gastric Cancer): 0.7223 | AUC (LN18, Glioblastoma): 0.7097 | AUC (LNCAPCLONEFGC, Prostate Cancer): 0.6119 | AUC (LOUNH91, Lung Cancer): 0.9465 | AUC (LOVO, Colon/Colorectal Cancer): 0.7392 | AUC (LOXIMVI, Melanoma): 0.8926 | AUC (LS180, Colon/Colorectal Cancer): 0.7453 | AUC (LS411N, Colon/Colorectal Cancer): 0.8492 | AUC (LS1034, Colon/Colorectal Cancer): 0.4819 | AUC (LUDLU1, Lung Cancer): 0.9399 | AUC (LXF289, Lung Cancer): 0.6887 | AUC (M059K, Glioblastoma): 0.8677 | AUC (MALME3M, Melanoma): 0.6048 | AUC (MC116, B-cell Lymphoma): 0.8821 | AUC (MCAS, Ovarian Cancer): 0.7202 | AUC (MCF7, Breast Cancer): 0.7287 | AUC (MDAMB175VII, Breast Cancer): 0.9247 | AUC (MDAMB231, Breast Cancer): 0.7703 | AUC (MDAMB361, Breast Cancer): 0.7016 | AUC (MDAMB436, Breast Cancer): 0.9544 | AUC (MDAMB453, Breast Cancer): 0.5182 | AUC (MDAMB468, Breast Cancer): 1 | AUC (MDST8, Colon/Colorectal Cancer): 0.8223 | AUC (MELHO, Melanoma): 0.7944 | AUC (MESSA, Uterine Sarcoma): 0.7132 | AUC (MFE280, Endometrial/Uterine Cancer): 0.7775
